{"source": "patent US5132309A", "about": "“2-oxo-3,8-diazaspiro(4,5)decane derivatives, pharmaceutical compositions containing them and process for preparing same” (Richter Gedeon Vegyeszeti Gyar RT, priority 1989, dated 1992)", "key": {"[1]": {"tested_on": "hypobaric hypoxia", "assay": "Inhibition of the hypobaric hypoxia (survival time)", "assay_type": "in vivo, male spontaneously hypertensive rats", "conditions": "for ED50: po, 1 h, read-out: Protection against hypobaric hypoxia, ED50", "procedure": "Male, spontaneously hypertensive rats weighing 200 to 220 g were used in these investigations. Groups consisting of 3 animals each were placed into a desiccator of 6 liters by volume, the pressure was decreased to 170 Hgmm (22.66 kPa) within 20 seconds and continuously maintained at the same level. One hour before the examination, the animals were treated with various oral doses of the test compounds. The ED50 values (i.e. the doses prolonging the survival time of the test animals by 50% in comparison to that of the control group treated with placebo) were determined and summarized in Table 3."}, "[2]": {"tested_on": "triethyl tin chloride-induced cerebral edema", "assay": "Inhibition of the cerebral (brain) edema induced by triethyl tin chloride", "assay_type": "in vivo, male Hannover-Wistar rats", "conditions": "rat, TET 2.5 mg/kg daily for 5 days", "procedure": "The cerebral edema-inhibiting effect of the compounds was investigated by the following method [Ann. Pharm. Fr. 42, 431 (1984)].\nA group consisting of 7 male Hannover-Wistar rats weighing 180 to 200 g were daily treated with 2.5 mg/kg of triethyl tin chloride (hereinafter TET) for 5 days to induce a cerebral edema. [TET (Merck-Schuchardt, Darmstadt, FRG) was dissolved in distilled water under stirring and the animals were orally treated with the stirred solution daily at 7 a.m.].\nThe reference and test compounds were homogenized in a 0.5% by weight carboxymethylcellulose solution by using an Ultra Turrax stirrer and the stirring was continued during the administration, too. These compounds were orally given first 1 hour, then 6 hours after the TET treatment in a volume of 0.5 ml/100 g of body-weight in both cases. The control group received the solvent of TET (i.e. distilled water) and the carrier of the compounds (i.e. 0.5% by weight carboxymethylcellulose solution) at the same intervals and volumes as given above.\nOn the 5th day of treatments, 2 hours following the last administration of the test compound, the animals were decapitated, the whole brain was rapidly taken out, washed with cold, 0.9% by weight sodium chloride solution and the moisture was removed by filter paper. The wet weights of the brains were weighed with an accuracy of one tenth mg and placed onto an aluminum foil previously weighed. Subsequently, the brains were dried at 90° C. for 92 hours, then the total (gross) weight (i.e. the dry brain weight together with the weight of the aluminum foil) was determined. The water content of the brain and the change thereof, respectively, were calculated from the difference of the wet and dry brain weight. The change was expressed as percentage of the protection as follows: [formula] wherein (TET-Ko) means the mean water content (%) of the brain of animals treated with TET and carrier;\n(TET-V) means the mean water content (%) of the brain of animals treated with TET and test compound;\n(Veh-Ko) means the mean water content (%) of the brain of animals treated with distilled water and carrier.\nThe deviations of changes in the water content and dry weight of the brain were compared by using Student's \"t\" trial. Also here, piracetam and dihydroergotoxine were used as reference drugs."}, "[3]": {"tested_on": "hypoxic memory damage", "assay": "Inhibition of the hypoxic damage of the memory (nootropic effect), conditioned avoidance in Shuttle-box", "assay_type": "in vivo, male spontaneously (genetically) hypertensive rats", "conditions": "rat, hypoxia 6% oxygen", "from_the_text": "Male, spontaneously (genetically) hypertensive rats weighing 210 to 230 g were used in these examinations. The active avoiding behavior was developed in a 6-channel automated Shuttle-box by a training consisting of 30 cycles during 3 days. Within a single cycle an intermittent light stimulus of 1 Hz frequency for 15 seconds as conditioned stimulus and an electric stimulus of 0.8 mA for 10 seconds as unconditioned stimulus were used with an intersignal time of 15 seconds.\nOn the 4th day, one hour before the experiment the animals were treated with a 10 mg/kg oral dose of the test compounds. Two control groups were used in these examinations, one of which was treated with placebo whereas the other one was treated with placebo and exposed to hypoxia. Piracetam (chemically 2-oxo-1-pyrrolidineacetic acid amide) and dihydroergotoxine were used as reference drugs. The performance of the animals was examined under hypoxic conditions in such a way that the boxes were flown through at a rate of 200 ml/min/box with a gaseous mixture containing 6% by volume of oxygen and 94% by volume of nitrogen. The number of the conditioned avoidance responses (as abbreviated hereinafter: CAR) was counted. The protective effect of the compounds against the hypoxic memory damage was calculated by using the following formula: [formula] wherein\nprotective effect means the effect inhibiting the hypoxic memory damage expressed as percentage; and\nCAR x means the average value of the number of conditioned responses in the animal group given.\nThe protective effect of the compounds against the hypoxic memory damage expressed as percentage of the control is shown in Table 2."}, "[4]": {"assay": "Cataleptogenic (catalepsy-inducing) effect", "design": "species or system male Wistar rats", "conditions": "in vivo; rat; oral; hourly for 6 hours"}, "[5]": {"tested_on": "apomorphine-induced locomotor hyperactivity and stereotypy", "assay": "Inhibition of the apomorphine-induced locomotor hyperactivity and stereotypy", "assay_type": "in vivo, male Hannover-Wistar rats", "conditions": "rat, 2.5 mg/kg oral; for Inhibition of apomorphine-induced LMA as percentage of the control / Inhibition of apomorphine-induced stereotypy as percentage of the control: apomorphine hydrochloride 1 mg/kg s.c.; for Inhibition of apomorphine-induced LMA as percentage of the control: control LMA 100% (438.9 ± 54.7 sec); for Inhibition of apomorphine-induced stereotypy as percentage of the control: control stereotypy 100% (105.0 ± 13.7 sec)", "from_the_text": "Apomorphine induces a characteristic syndrome in rats and various animal species which manifests itself in the hyperactivity and stereotypic behavior of the animals [J. Pharm. Pharmacol. 19 627 (1957); J. Neurol. Transm. 40, 97 (1977); J. Psychiat. Res. 11, 1 (1974); J. Pharm. Pharmacol. 25, 1003 (1973); as well as Nature 263, 338 (1976)].\nMale Hannover-Wistar rats weighing 160 to 180 g were used in these examinations. The test compounds were suspended in a 2% Tween 80 solution and diluted to the desired concentration by adding distilled water. The corresponding dose was administered to rats in a volume of 5 ml/kg. The control group was treated with the above solution containing no test substance.\nOne hour following the treatment with 2.5 mg/kg oral dose of the test compound, the rats were subcutaneously treated with 1 mg/kg of apomorphine hydrochloride.\nAt 15 minutes after administration of apomorphine, the animals were placed in a 5-channel behavior-observing device controlled by a microprocessor and the coordinated and stereotypic motion of the animals were measured for 15 minutes. Chlozapine (chemically 8-chloro-11-(4-methyl-1-piperazinyl)-5H-dibenzo[b,e][1,4]diazepine) was used in a dose of 2.5 mg/kg as reference drug. The results are given as percentages of the control for both motion types."}}, "note": "Where two headings read alike, the source gives them in different places.", "data": [{"molecule": "dihydroergotoxine [DHE]", "values": [{"measurement": "survival achieved at the high dose of DHE", "setting": "[1]; rat, 50.0 mg/kg p.o., hypobaric hypoxia", "result": 40, "unit": "%"}, {"measurement": "Protection against hypobaric hypoxia, ED50", "setting": "[1]; rat, 170 Hgmm, dose prolonging survival time by 50% vs placebo control, 60 min", "result": 50.0, "unit": "mg/kg p.o."}, {"measurement": "Protection (brain water content, cerebral edema)", "setting": "[2]; dose 30 mg/kg oral", "result": 25.6, "unit": "%"}, {"measurement": "Protection against amnesia", "setting": "[3]; 10 mg/kg p.o.", "result": 63, "unit": "%"}]}, {"molecule": "COc1ccc(CCN2C(=O)OC3(CCN(CCC=C(c4ccc(F)cc4)c4ccc(F)cc4)CC3)C2(C)O)cc1OC.O=C(O)/C=C\\C(=O)O", "note": "(stereo not drawn) [D, 8-[4,4-bis(4-fluorophenyl)-3-butenyl]-3-[2-(3,4-dimethoxyphenyl)ethyl]-4-hydroxy-4-methyl-2-oxo-1-oxa-3,8-diazaspiro[4,5]decane maleate]", "values": [{"measurement": "Protection (brain water content, cerebral edema)", "setting": "[2]; dose 100 umol/kg oral", "result": 102.2, "unit": "%"}]}, {"molecule": "CC(C)(C)N1C(=O)OC2(CCN(CCC=C(c3ccc(F)cc3)c3ccc(F)cc3)CC2)C1(C)O.Cl", "note": "(stereo not drawn) [C, 3-tert-butyl-8-[4,4-bis(4-fluorophenyl)-3-butenyl]-4-hydroxy-4-methyl-2-oxo-1-oxa-3,8-diazaspiro[4,5]decane hydrochloride]", "values": [{"measurement": "ED50", "setting": "[1]; rat, 170 Hgmm, dose prolonging survival time by 50% vs placebo control", "result": 23.7, "unit": "mg/kg"}, {"measurement": "Protection (brain water content, cerebral edema)", "setting": "[2]; dose 25 umol/kg oral", "result": 97.9, "unit": "%"}, {"measurement": "Protection (brain water content, cerebral edema)", "setting": "[2]; dose 50 umol/kg oral", "result": 102.0, "unit": "%"}, {"measurement": "Protection (brain water content, cerebral edema)", "setting": "[2]; dose 100 umol/kg oral", "result": 88.1, "unit": "%"}, {"measurement": "Protection against amnesia", "setting": "[3]; 10 mg/kg p.o.", "result": 64, "unit": "%"}]}, {"molecule": "CN1C(=O)OC2(CCN(CCC=C(c3ccc(F)cc3)c3ccc(F)cc3)CC2)C1(C)O.Cl", "note": "(stereo not drawn) [A, 8-[4,4-bis(4-fluorophenyl)-3-butenyl]-3,4-dimethyl-4-hydroxy-2-oxo-1-oxa-3,8-diazaspiro[4,5]decane hydrochloride]", "values": [{"measurement": "ED50 at 6 h", "setting": "[4]", "result": "> 300", "unit": "mg/kg"}, {"measurement": "Inhibition of apomorphine-induced LMA as percentage of the control", "setting": "[5]", "result": "-40 percentage of the control"}, {"measurement": "Inhibition of apomorphine-induced stereotypy as percentage of the control", "setting": "[5]", "result": "0 percentage of the control"}]}, {"molecule": "CN1CCN(C2=Nc3cc(Cl)ccc3Nc3ccccc32)CC1", "note": "[Clozapine, 8-chloro-11-(4-methyl-1-piperazinyl)-5H-dibenzo[b,e][1,4]diazepine, reference compound]", "values": [{"measurement": "ED50 at 6 h", "setting": "[4]", "result": 31.9, "unit": "mg/kg"}, {"measurement": "inhibition of stereotypy (in words)", "setting": "[5]", "result": "did not inhibit the stereotypy"}, {"measurement": "Inhibition of apomorphine-induced LMA as percentage of the control", "setting": "[5]", "result": "-25 percentage of the control"}, {"measurement": "Inhibition of apomorphine-induced stereotypy as percentage of the control", "setting": "[5]", "result": "+11 percentage of the control"}]}, {"molecule": "CC1(O)NC(=O)OC12CCN(CCC=C(c1ccc(F)cc1)c1ccc(F)cc1)CC2.Cl", "note": "(stereo not drawn) [E, 8-[4,4-bis(4-fluorophenyl)-3-butenyl]-4-hydroxy-4-methyl-2-oxo-1-oxa-3,8-diazaspiro[4,5]decane hydrochloride]", "values": [{"measurement": "Protection (brain water content, cerebral edema)", "setting": "[2]; dose 100 umol/kg oral", "result": 114.3, "unit": "%"}]}, {"molecule": "CC1(O)N(Cc2ccccc2)C(=O)OC12CCN(CCC=C(c1ccc(F)cc1)c1ccc(F)cc1)CC2.Cl", "note": "(stereo not drawn) [B, 3-benzyl-8-[4,4-bis(4-fluorophenyl)-3-butenyl]-4-hydroxy-4-methyl-2-oxo-1-oxa-3,8-diazaspiro[4,5]decane hydrochloride]", "values": [{"measurement": "ED50 at 6 h", "setting": "[4]", "result": "> 300", "unit": "mg/kg"}, {"measurement": "Inhibition of apomorphine-induced LMA as percentage of the control", "setting": "[5]", "result": "-25 percentage of the control"}, {"measurement": "Inhibition of apomorphine-induced stereotypy as percentage of the control", "setting": "[5]", "result": "+15 percentage of the control"}]}, {"molecule": "NC(=O)CN1CCCC1=O", "note": "[PIR, 2-oxo-1-pyrrolidineacetic acid amide]", "values": [{"measurement": "ED50", "setting": "[1]; Rattus norvegicus", "result": 293, "unit": "mg/kg"}, {"measurement": "Protection (brain water content, cerebral edema)", "setting": "[2]; dose 100 umol/kg oral", "result": 16.7, "unit": "%"}, {"measurement": "Protection against amnesia", "setting": "[3]; 500 mg/kg p.o.", "result": 85, "unit": "%"}]}]}
